Data from patent US20120270945A1, “METHOD FOR MODULATING CYTOKINE ACTIVITY” (SUCAMPO AG, priority 2011, published 2012).

Tests used:
IL-12 = IL-12 mRNA expression in intestinal tissue of DSS-induced ulcerative colitis rats (real-time PCR); assay type: in vivo, rat
Method: (§1) Male LEW/SsN rats were given free access to 3% dextran sulfate sodium (DSS) in drinking water to induce ulcerative colitis. (−)-7-{(2R,4aR,5R,/aR)-2-[(3S)-1,1-difluoro-3-methylpentyl]-2-hydroxy-6-oxooctahydrocyclopenta[b]pyran-5-yl}heptanoic acid (Compound A) was orally administered to the animals twice a day for 10 days. The same amount of the vehicle was administered to control animals. At the 10 days after start of 3% DSS drinking, animals were sacrificed and intestinal tissues were excised. The mRNA expressions of IL-12, IL-1beta, IL-6, and TNF-alpha in the intestinal tissues were measured by real-time polymerase chain reaction technique.
(§2) Each value is relative to the reference gene (GAPDH) level. Data are represented as mean (Arbitrary unit) from 3 to 4 animals.

[1] = Incidence of esophagitis in patients who take NSAIDs (naproxen); assay type: in vivo, human; details: patients on 500 mg naproxen twice a day
Method: Patients who take NSAIDs were randomized to one of four treatment groups. All patients received 500 mg of naproxen twice a day. One group received placebo while the other three groups received 18, 36 or 54 mcg of Compound A, respectively, for 12 weeks. The incidence of esophagitis was 10.0%, 6.5% or 6.5% for the groups received 18, 36 or 54 mcg of Compound A, respectively, while it was 20.0% for the group received placebo.

IL-6 = IL-6 mRNA expression in intestinal tissue of DSS-induced ulcerative colitis rats (real-time PCR); assay type: in vivo, rat
Method: as §1, §2

IL-1beta = IL-1beta mRNA expression in intestinal tissue of DSS-induced ulcerative colitis rats (real-time PCR); assay type: in vivo, rat
Method: as §1, §2

TNF-alpha = TNF-alpha mRNA expression in intestinal tissue of DSS-induced ulcerative colitis rats (real-time PCR); assay type: in vivo, rat
Method: as §1, §2

SOCS-1 = SOCS-1 expression in colon of DSS-induced colitis model mice (real-time PCR); assay type: in vivo, mouse; details: C57/B6J mice, 2% DSS for 7 days, 10 μM solution orally once daily for 7 days, GAPDH as reference
Method: The experimental model used C57/B6J mice (7-8 weeks old). Colitis was induced by administration of 2% dextran sulfate sodium (DSS) in drinking water for 7 days. Ten (10) μM solution of Compound B ((−)-7-[(2R,4aR,5R,7aR)-2-(1,1-difluoropentyl)-2-hydroxy-6-oxooctahydrocyclopenta[b]pyran-5-yl]heptanoic acid) was administered orally once daily for 7 days from the day of starting DSS treatment. One day after last administration, animals were sacrificed and colons were excised. After extraction of mRNA from colon tissues, real-time PCR analysis of SOCS-1 was conducted using house-keeping gene GAPDH as a reference.

[2] = DSS-induced ulcerative colitis model rats, versus vehicle control
[3] = male LEW/SsN rats, 3% DSS drinking water, oral twice a day for 10 days, intestinal tissue, mean from 3 to 4 animals

SMILES	effect on expression of IL-12 increased by DSS (in words) (IL-12; [2])	expression of IL-12 (mRNA, relative to GAPDH) (IL-12; [3])	incidence of esophagitis ([1]; 18 mcg for 12 weeks (placebo 20.0%))	incidence of esophagitis ([1]; 36 mcg for 12 weeks (placebo 20.0%))	incidence of esophagitis ([1]; 54 mcg for 12 weeks (placebo 20.0%))	effect on expression of IL-6 increased by DSS (in words) (IL-6; [2])	expression of IL-6 (mRNA, relative to GAPDH) (IL-6; [3])	effect on expression of IL-1beta increased by DSS (in words) (IL-1beta; [2])	expression of IL-1beta (mRNA, relative to GAPDH) (IL-1beta; [3])	effect on expression of TNF-alpha increased by DSS (in words) (TNF-alpha; [2])	expression of TNF-alpha (mRNA, relative to GAPDH) (TNF-alpha; [3])	effect on overexpression of SOCS-1 gene (in words) (SOCS-1)
CC[C@H](C)CC(F)(F)[C@@]1(O)CC[C@H]2[C@@H](CC(=O)[C@@H]2CCCCCCC(=O)O)O1 [Compound A, (−)-7-{(2R,4aR,5R,/aR)-2-[(3S)-1,1-difluoro-3-methylpentyl]-2-hydroxy-6-oxooctahydrocyclopenta[b]pyran-5-yl}heptanoic acid]	reduced	0.99 Arbitrary unit	10.0%	6.5%	6.5%	reduced	49.25 Arbitrary unit	reduced	54.83 Arbitrary unit	reduced	4.68 Arbitrary unit	–
CCCCC(F)(F)[C@@]1(O)CC[C@H]2[C@@H](CC(=O)[C@@H]2CCCCCCC(=O)O)O1 [Compound B, (−)-7-[(2R,4aR,5R,7aR)-2-(1,1-difluoropentyl)-2-hydroxy-6-oxooctahydrocyclopenta[b]pyran-5-yl]heptanoic acid]	–	–	–	–	–	–	–	–	–	–	–	reduced
